Source: patent US9409892B2, “4-hydroxy-isoquinoline compounds as HIF hydroxylase inhibitors” (FIBROGEN, INC., priority 2012, dated 2016)
Where “and” joins values, the source holds several entries; their conditions need not be identical. Identical values can stand only once. Like-named read-outs stand apart in the source and are kept apart here.

Legend:
PHD1 (EGLN2) = PHD1 (EGLN2) (Homo sapiens (Human), UniProt Q96KS0); assay: HIF-PH assay (14CO2 capture), PHD1 enzyme inhibition; assay type: biochemical; conditions: Table 1; for PHD2/PHD1: ratio of the IC50 of the compound for each enzyme
Chain of PHD1 (EGLN2) (Q96KS0 whole entry): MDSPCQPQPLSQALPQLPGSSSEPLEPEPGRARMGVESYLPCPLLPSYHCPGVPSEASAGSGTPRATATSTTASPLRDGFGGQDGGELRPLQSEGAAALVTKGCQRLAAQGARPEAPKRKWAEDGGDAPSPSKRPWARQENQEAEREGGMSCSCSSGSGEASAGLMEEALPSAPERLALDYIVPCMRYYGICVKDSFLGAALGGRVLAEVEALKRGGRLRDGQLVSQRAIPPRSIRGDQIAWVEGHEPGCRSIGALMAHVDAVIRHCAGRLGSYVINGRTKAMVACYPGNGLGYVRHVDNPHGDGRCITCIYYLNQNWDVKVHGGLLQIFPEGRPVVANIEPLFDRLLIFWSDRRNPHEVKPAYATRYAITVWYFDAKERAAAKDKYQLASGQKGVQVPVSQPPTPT

PHD2 (EGLN1) = PHD2 (EGLN1) (Homo sapiens (Human), UniProt Q9GZT9); assay: HIF-PH assay (14CO2 capture), PHD2 enzyme inhibition; assay type: biochemical; conditions: Table 1
Chain of PHD2 (EGLN1) (Q9GZT9 whole entry): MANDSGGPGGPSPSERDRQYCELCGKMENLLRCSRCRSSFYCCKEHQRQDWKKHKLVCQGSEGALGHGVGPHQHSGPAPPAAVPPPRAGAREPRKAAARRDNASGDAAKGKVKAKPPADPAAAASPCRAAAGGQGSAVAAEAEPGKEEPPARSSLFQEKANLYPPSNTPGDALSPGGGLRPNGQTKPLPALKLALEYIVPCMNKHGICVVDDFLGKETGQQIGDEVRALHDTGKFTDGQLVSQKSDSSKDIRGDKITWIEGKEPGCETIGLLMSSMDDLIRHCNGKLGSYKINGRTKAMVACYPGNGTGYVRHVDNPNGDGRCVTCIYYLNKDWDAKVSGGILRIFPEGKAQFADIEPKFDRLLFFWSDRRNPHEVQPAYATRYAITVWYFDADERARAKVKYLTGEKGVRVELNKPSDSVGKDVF

[1] = individual measurement, read-out: IC50 (μM) PHD1
[2] = individual measurement, read-out: IC50 (μM) PHD2

Structure (SMILES) | IC50 (PHD1 (EGLN2); average of multiple independent measurements, read-out: IC50 (μM) PHD1 avg.) | PHD2/PHD1 avg. (PHD1 (EGLN2); average of the ratios of multiple independent measurements) | IC50 (PHD1 (EGLN2); [1]) | IC50 (PHD2 (EGLN1); average of multiple independent measurements, read-out: IC50 (μM) PHD2 avg.) | IC50 (PHD2 (EGLN1); [2]) | PHD2/PHD1 (PHD1 (EGLN2))
CC(C)CC(CC(=O)O)NC(=O)c1nc(C#N)c2cc(Oc3ccccc3)ccc2c1O (centres unmarked) [Compound 66, 3-[(1-Cyano-4-hydroxy-7-phenoxy-isoquinoline-3-carbonyl)-amino]-5-methyl-hexanoic acid] | 5.52 µM | 10.5 avg. | 6.23 µM and 4.8 µM | 53.5 µM | 26.5 µM and 80.5 µM | 
N#Cc1nc(C(=O)NCC[C@@H](NC(N)=O)C(=O)O)c(O)c2ccc(Oc3ccccc3)cc12 [Compound 55, (R)-4-(1-Cyano-4-hydroxy-7-phenoxyisoquinoline-3-carboxamido)-2-ureidobutanoic acid] |  |  | 1.1 µM |  | 9.1 µM | 8
CC(C)(CNC(=O)c1nc(C#N)c2cc(Oc3cccc4ccccc34)ccc2c1O)C(=O)O [Compound 43, 3-(1-Cyano-4-hydroxy-7-(naphthalen-1-yloxy)isoquinoline-3-carboxamido)-2,2-dimethylpropanoic acid] |  |  | 0.22 µM |  | 1.73 µM | 8
CC(C)(CCNC(=O)c1ncc2cc(Oc3ccccc3)ccc2c1O)C(=O)O [Compound 8, 4-[(4-Hydroxy-7-phenoxy-isoquinoline-3-carbonyl)-amino]-2,2-dimethyl-butyric acid] |  |  | 11.6 µM |  | 119 µM | 10
O=C(O)CCNC(=O)c1ncc2cc(Oc3ccccn3)ccc2c1O [Compound 25, 3-{[4-Hydroxy-7-(pyridin-2-yloxy)-isoquinoline-3-carbonyl]-amino}-propionic acid] |  |  | 4.57 µM |  | 44.6 µM | 10
N#Cc1nc(C(=O)N[C@H]2CCC[C@H]2C(=O)O)c(O)c2ccc(Oc3ccccc3)cc12 (relative stereo) [Compound 33, cis-2-[(1-Cyano-4-hydroxy-7-phenoxy-isoquinoline-3-carbonyl)-amino]-cyclopentanecarboxylic acid] |  |  | 16.9 µM |  | 94.8 µM | 6
N#Cc1nc(C(=O)NCC2(C(=O)O)CC[S+]([O-])CC2)c(O)c2ccc(Oc3ccccc3)cc12 (centres unmarked) [Compound 30, 4-{[(1-Cyano-4-hydroxy-7-phenoxy-isoquinoline-3-carbonyl)-amino]-methyl}-1-oxo-hexahydro-1λ^4-thiopyran-4-carboxylic acid] |  |  | 25.1 µM |  | 200 µM | 8
N#Cc1nc(C(=O)NCC2(C(=O)O)CCC2)c(O)c2ccc(Oc3ccccc3)cc12 [Compound 14, 1-{[(1-Cyano-4-hydroxy-7-phenoxy-isoquinoline-3-carbonyl)-amino]-methyl}-cyclobutanecarboxylic acid] |  |  | 0.31 µM |  | 3.52 µM | 11
CC(C)(CNC(=O)c1nc(C#N)c2cc(Oc3c(F)cccc3F)ccc2c1O)C(=O)O [Compound 22, 3-{[1-Cyano-7-(2,6-difluoro-phenoxy)-4-hydroxy-isoquinoline-3-carbonyl]-amino}-2,2-dimethyl-propionic acid] |  |  | 0.93 µM |  | 15.1 µM | 16
CCNC(=O)N[C@H](CCNC(=O)c1nc(C#N)c2cc(Oc3ccccc3)ccc2c1O)C(=O)O [Compound 52, (R)-4-(1-Cyano-4-hydroxy-7-phenoxyisoquinoline-3-carboxamido)-2-(3-ethylureido)butanoic acid] |  |  | 1.33 µM |  | 24.7 µM | 18.6
N#Cc1nc(C(=O)N[C@H]2CCCC[C@H]2C(=O)O)c(O)c2ccc(Oc3ccccc3)cc12 (relative stereo) [Compound 32, cis-2-(1-Cyano-4-hydroxy-7-phenoxyisoquinoline-3-carboxamido)cyclohexanecarboxylic acid] |  |  | 27.9 µM |  | 182 µM | 6
N[C@@H](CNC(=O)c1ncc2cc(Oc3ccccc3)ccc2c1O)C(=O)O [Compound 9, 2-(S)-Amino-3-[(4-hydroxy-7-phenoxy-isoquinoline-3-carbonyl)-amino]-propionic acid] |  |  | 33.9 µM |  | > 200 µM | 6
N#Cc1nc(C(=O)NCC[C@@H](N)C(=O)O)c(O)c2ccc(Oc3ccccc3)cc12 [Compound 50, (R)-2-Amino-4-(1-cyano-4-hydroxy-7-phenoxyisoquinoline-3-carboxamido)butanoic acid] |  |  | 5.19 µM |  | 45.4 µM | 9

Now from value to compound:

IC50 (PHD1 (EGLN2); average of multiple independent measurements, read-out: IC50 (μM) PHD1 avg.) | PHD2/PHD1 avg. (PHD1 (EGLN2); average of the ratios of multiple independent measurements) | IC50 (PHD1 (EGLN2); [1]) | IC50 (PHD2 (EGLN1); average of multiple independent measurements, read-out: IC50 (μM) PHD2 avg.) | IC50 (PHD2 (EGLN1); [2]) | PHD2/PHD1 (PHD1 (EGLN2)) | Structure (SMILES)
 |  | 0.91 µM |  | 7.9 µM | 9 | N#Cc1nc(C(=O)NCC2(C(=O)O)CCC2)c(O)c2ccc(OC3CCCCC3)cc12 [Compound 159, 1-{[(1-Cyano-7-cyclohexyloxy-4-hydroxy-isoquinoline-3-carbonyl)-amino]-methyl}-cyclobutanecarboxylic acid]
 |  | 2.86 µM |  | 13.6 µM | 5 | CC(C)(CNC(=O)c1nc(C#N)c2cc(Oc3ccccc3)ccc2c1O)CC(=O)O [Compound 89, 4-[(1-Cyano-4-hydroxy-7-phenoxy-isoquinoline-3-carbonyl)-amino]-3,3-dimethyl-butyric acid]
 |  | 2.76 µM |  | 32.2 µM | 12 | N#Cc1nc(C(=O)N[C@@H](CC(=O)O)c2ccccc2F)c(O)c2ccc(Oc3ccccc3)cc12 [Compound 170, 3-(S)-[(1-Cyano-4-hydroxy-7-phenoxy-isoquinoline-3-carbonyl)-amino]-3-(2-fluoro-phenyl)-propionic acid]
 |  | 23.7 µM |  | 200 µM | 8 | O=C(O)CCNC(=O)c1ncc2ccc(Oc3ccccc3)cc2c1O [Compound 112, 3-[(4-Hydroxy-6-phenoxy-isoquinoline-3-carbonyl)-amino]-propionic acid]
 |  | 1.66 µM |  | 21 µM | 13 | N#Cc1c2cc(Oc3ccccc3)ccc2c(O)c(C(=O)NCCCC(=O)O)[n+]1[O-] [Compound 158, 3-(3-Carboxypropylcarbamoyl)-1-cyano-4-hydroxy-7-phenoxyisoquinoline 2-oxide]
 |  | 1.45 µM |  | 9.45 µM | 7 | N#Cc1nc(C(=O)NCC(C(=O)O)c2ccc(F)cc2)c(O)c2ccc(Oc3ccccc3)cc12 (centres unmarked) [Compound 181, 3-[(1-Cyano-4-hydroxy-7-phenoxy-isoquinoline-3-carbonyl)-amino]-2-(4-fluoro-phenyl)-propionic acid]
 |  | 12.4 µM |  | 200 µM | 16 | O=C(O)CCCNC(=O)c1ncc2cc(NC(=O)c3ccc(F)cc3)ccc2c1O [Compound 120, 4-{[7-(4-Fluoro-benzoylamino)-4-hydroxy-isoquinoline-3-carbonyl]-amino}-butyric acid]
 |  | 2.51 µM |  | 51.9 µM | 21 | N#Cc1nc(C(=O)NC[C@H](N)C(=O)O)c(O)c2ccc(Oc3ccccc3)cc12 [Compound 86, 2-(S)-Amino-3-[(1-cyano-4-hydroxy-7-phenoxy-isoquinoline-3-carbonyl)-amino]-propionic acid]
 |  | 3.34 µM |  | 29.2 µM | 9 | O=C(O)CCNC(=O)c1ncc2cc(NC(=O)Nc3ccccc3)ccc2c1O [Compound 116, 3-{[4-Hydroxy-7-(3-phenyl-ureido)-isoquinoline-3-carbonyl]-amino}-propionic acid]
 |  | 2.43 µM |  | 64.1 µM | 26 | C[C@@H](NC(=O)c1nc(C#N)c2cc(Oc3ccccc3)ccc2c1O)[C@@H](C)C(=O)O [Compound 69, (2R,3R)-3-[(1-Cyano-4-hydroxy-7-phenoxy-isoquinoline-3-carbonyl)-amino]-2-methyl-butyric acid]
 |  | 26.6 µM |  | 153 µM | 6 | O=C(NCC(C(=O)O)c1ccccc1)c1ncc2cc(Oc3ccccc3)ccc2c1O (centres unmarked) [Compound 169, 3-[(4-Hydroxy-7-phenoxy-isoquinoline-3-carbonyl)-amino]-2-phenyl-propionic acid]
